These are literature values, as cited in patent US8748108B2, “Biomarkers for identifying patient classes” (AbbVie Inc., priority 2006, dated 2014).

For this series, the system named is recurrent SCLC. Conditions: recurrent SCLC patients; cited from earlier work.

`CC[C@@]1(O)C(=O)OCc2c1cc1n(c2=O)Cc2cc3c(CN(C)C)c(O)ccc3nc2-1` [topotecan]: the response rate is reported as 2-6%.
